{"source": "patent US20260256769A1", "about": "“ARTERIOSCLEROSIS SUPPRESSION THROUGH INHIBITION OF TRANSCRIPTION FACTOR FoxO1” (TEIKYO UNIVERSITY, priority 2022, published 2026)", "key": {"[1]": {"system": "atherosclerosis lesions in the aortic sinus", "assay": "Atherosclerosis lesions in the aortic sinus evaluated using HE staining", "type": "in vivo", "conditions": "wild-type mice (Syk+/+), 20 mg/kg intraperitoneally for 8 weeks, vs DMSO-treated group", "method": "Next, after the FoxO1 inhibitor AS1842856 (20 mg/kg) was intraperitoneally administered to wild-type mice (Syk^+/+) for 8 weeks, atherosclerosis lesions in the aortic sinus were evaluated using HE staining."}, "[2]": {"system": "bone marrow monocytes", "assay": "CD11c expression in bone marrow monocytes by real-time PCR after intraperitoneal administration", "type": "in vivo", "conditions": "wild-type mice, 20 mg/kg intraperitoneally for 2 weeks, vs DMSO-treated group", "method": "(§1) In this Example, the following experiment was carried out. First, the FoxO1 inhibitor AS1842856 (20 mg/kg) was intraperitoneally administered to Syk gene-deficient mice (Syk^del/del) and wild-type mice (Syk^+/+) for 2 weeks. The expression of CD11c in collected bone marrow monocytes was measured by real-time PCR, and the CD11c expression (%) in peripheral blood monocytes (CD115 positive cells) was measured by flow cytometry. CD115 is a monocyte marker."}, "[3]": {"system": "peripheral blood monocytes (CD115 positive cells)", "assay": "CD11c expression (%) in peripheral blood monocytes (CD115 positive cells) by flow cytometry after intraperitoneal administration", "type": "in vivo", "conditions": "wild-type mice, 20 mg/kg intraperitoneally for 2 weeks, vs DMSO-treated group", "method": "as §1"}, "[4]": {"system": "bone marrow-derived macrophages", "assay": "CD11c on the cell surface of bone marrow-derived macrophages by flow cytometry", "type": "cell-based, mice", "conditions": "vs DMSO-treated control group", "method": "Next, we assumed that the transcription factor that binds to the nucleotide sequence of the determined region as above was FoxO1, and a FoxO1 inhibitor AS1842856 was administered to the bone marrow-derived macrophages respectively collected from Syk gene-deficient mice (Syk^del/del) and wild-type mice (Syk^+/+), and CD11c on the cell surface was measured by flow cytometry."}}}
{"smiles": "CCn1cc(C(=O)O)c(=O)c2c(N)c(F)c(NC3CCCCC3)cc21", "note": "[AS1842856, 5-amino-7-(cyclohexylamino)-1-ethyl-6-fluoro-4-oxo-1,4-dihydroquinoline-3-carboxylic acid]", "values": [{"measurement": "atherosclerosis lesions in the aortic sinus", "setting": "[1]", "value": "Atherosclerosis was suppressed"}, {"measurement": "CD11c expression in bone marrow monocytes", "setting": "[2]", "value": "significantly decreased"}, {"measurement": "CD11c/CD115 ratio in peripheral blood monocytes", "setting": "[3]", "value": "significantly decreased"}, {"measurement": "expression of CD11c on the cell surface", "setting": "[4]; bone marrow-derived macrophages from Syk gene-deficient mice (Syk del/del)", "value": "no significant difference"}, {"measurement": "expression of CD11c on the cell surface", "setting": "[4]; bone marrow-derived macrophages from wild-type mice (Syk+/+)", "value": "significantly decreased"}]}
